# Test results taken from US10231954B2, “Neurodegenerative therapies” (LYTIX BIOPHARMA AS, priority 2014, dated 2019).
# Experiments:
# Type in all cases: biochemical
# PKBa = PKBa (Homo sapiens, UniProt P31749); experiment: Kinase profiling PKBa
# From the text: (§1) Any value less that 25 is considered to be highly significant inhibition.
# p38a MAPK = p38a MAPK (Homo sapiens, UniProt Q16539); experiment: Kinase profiling p38a MAPK
# From the text: as §1
# PDK1 = molecular target: T1, PDK1 (Homo sapiens, UniProt O15530); experiment: Kinase profiling PDK1
# T1 sequence (O15530 1-556): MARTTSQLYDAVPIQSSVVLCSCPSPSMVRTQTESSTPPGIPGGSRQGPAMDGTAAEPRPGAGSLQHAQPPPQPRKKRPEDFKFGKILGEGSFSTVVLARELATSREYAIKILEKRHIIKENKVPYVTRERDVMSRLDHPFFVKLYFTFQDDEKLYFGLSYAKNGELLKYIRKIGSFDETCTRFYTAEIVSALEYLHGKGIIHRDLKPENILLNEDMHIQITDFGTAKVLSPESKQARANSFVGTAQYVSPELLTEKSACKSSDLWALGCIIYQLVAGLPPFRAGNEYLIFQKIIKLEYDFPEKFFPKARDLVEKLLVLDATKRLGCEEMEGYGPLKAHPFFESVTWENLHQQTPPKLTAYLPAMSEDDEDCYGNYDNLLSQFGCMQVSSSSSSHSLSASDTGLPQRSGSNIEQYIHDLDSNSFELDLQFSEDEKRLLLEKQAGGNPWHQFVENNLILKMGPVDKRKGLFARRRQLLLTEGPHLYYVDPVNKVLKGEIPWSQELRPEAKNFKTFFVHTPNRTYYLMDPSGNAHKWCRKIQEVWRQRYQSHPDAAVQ
# From the text: as §1
# p38b MAPK = p38b MAPK (Homo sapiens, UniProt Q15759); experiment: Kinase profiling p38b MAPK; details: 100 micromolar inhibitor concentration; 100 is no change
# From the text: as §1
# RSK2 = RSK2 (Homo sapiens, UniProt P51812); experiment: Kinase profiling RSK2; details: 100 micromolar inhibitor concentration; 100 is no change
# From the text: as §1
# MKK1 = MKK1 (Homo sapiens, UniProt Q02750); experiment: Kinase profiling MKK1
# From the text: as §1
# PKA = PKA (Homo sapiens, UniProt P17612); experiment: Kinase profiling PKA
# From the text: as §1
# PKCa = PKCa (Homo sapiens, UniProt P17252); experiment: Kinase profiling PKCa
# From the text: as §1
# PLK1 = PLK1 (Homo sapiens, UniProt P53350); experiment: Kinase profiling PLK1; details: 100 micromolar inhibitor; 100 = no change
# From the text: as §1
# MARK3 = MARK3 (Homo sapiens, UniProt P27448); experiment: Kinase profiling MARK3; details: 100 micromolar inhibitor; 100 = no change
# From the text: as §1
# JAK2 = JAK2 (Homo sapiens, UniProt O60674); experiment: Kinase profiling JAK2; details: 100 micromolar inhibitor; 100 = no change
# From the text: as §1
# DYRK1A = DYRK1A (Homo sapiens, UniProt Q13627); experiment: DYRK 1A assay (kinase profiling); details: 100 micromolar inhibitor; 100 = no change
# Procedure: Assays are stopped by addition of 5 μl of 0.5 M (3%) orthophosphoric acid and then harvested onto P81 Unifilter plates with a wash buffer of 50 mM orthophosphoric acid.
# as §1
# CHK2 = CHK2 (Homo sapiens, UniProt O96017); experiment: Kinase profiling CHK2; details: 100 micromolar inhibitor; 100 = no change
# From the text: as §1
# MSK1 = MSK1 (Homo sapiens, UniProt O75582); experiment: Kinase profiling MSK1; details: 100 micromolar inhibitor; 100 = no change
# From the text: as §1
# PAK4 = PAK4 (Homo sapiens, UniProt O96013); experiment: Kinase profiling PAK4; details: 100 micromolar inhibitor; 100 = no change
# From the text: as §1
# Lck = Lck (Homo sapiens, UniProt P06239); experiment: Kinase profiling Lck; details: 100 micromolar inhibitor; 100 = no change
# From the text: as §1
# SYK = SYK (Homo sapiens, UniProt P43405); experiment: Kinase profiling SYK; details: 100 micromolar inhibitor; 100 = no change
# From the text: as §1
# EPH-A2 = EPH-A2 (Homo sapiens, UniProt P29317); experiment: Kinase profiling EPH-A2; details: 100 micromolar inhibitor; 100 = no change
# From the text: as §1
# PIM1 = PIM1 (Homo sapiens, UniProt P11309); experiment: Kinase profiling PIM1; details: 100 micromolar inhibitor; 100 = no change
# From the text: as §1
# CAMKKb = CAMKKb (Homo sapiens, UniProt Q96RR4); experiment: Kinase profiling CAMKKb; details: 100 micromolar inhibitor; 100 = no change
# From the text: as §1
# TBK1 = molecular target: T2, TBK1 (Homo sapiens, UniProt Q9UHD2); experiment: Kinase profiling TBK1; details: 100 micromolar inhibitor; 100 = no change
# T2 sequence (Q9UHD2 1-729): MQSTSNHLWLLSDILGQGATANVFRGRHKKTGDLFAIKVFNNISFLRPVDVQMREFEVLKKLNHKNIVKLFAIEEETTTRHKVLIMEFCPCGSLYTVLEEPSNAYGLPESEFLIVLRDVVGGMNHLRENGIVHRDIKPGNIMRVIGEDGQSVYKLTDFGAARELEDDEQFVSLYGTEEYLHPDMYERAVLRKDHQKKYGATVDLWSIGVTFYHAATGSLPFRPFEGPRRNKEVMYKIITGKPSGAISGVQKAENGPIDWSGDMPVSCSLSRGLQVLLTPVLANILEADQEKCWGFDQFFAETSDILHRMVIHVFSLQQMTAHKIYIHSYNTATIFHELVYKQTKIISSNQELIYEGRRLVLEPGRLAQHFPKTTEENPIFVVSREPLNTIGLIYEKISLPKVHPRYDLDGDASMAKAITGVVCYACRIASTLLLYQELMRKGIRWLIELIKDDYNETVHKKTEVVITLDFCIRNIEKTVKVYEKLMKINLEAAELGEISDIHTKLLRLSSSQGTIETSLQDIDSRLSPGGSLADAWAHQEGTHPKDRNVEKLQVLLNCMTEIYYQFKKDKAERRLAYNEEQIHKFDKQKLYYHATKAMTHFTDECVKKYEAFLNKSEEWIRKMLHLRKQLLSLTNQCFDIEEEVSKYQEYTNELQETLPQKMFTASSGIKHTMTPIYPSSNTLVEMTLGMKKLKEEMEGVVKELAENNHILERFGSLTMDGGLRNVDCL
# From the text: as §1
# EF2K = EF2K (Homo sapiens, UniProt O00418); experiment: Kinase profiling EF2K; details: 100 micromolar inhibitor; 100 = no change
# From the text: as §1
# BTK = BTK (Homo sapiens, UniProt Q06187); experiment: Kinase profiling BTK; details: 100 micromolar inhibitor; 100 = no change
# From the text: as §1
# RIPK2 = RIPK2 (Homo sapiens, UniProt O43353); experiment: Kinase profiling RIPK2; details: 100 micromolar inhibitor; 100 = no change
# From the text: as §1
# [1] = 100 micromolar inhibitor concentration, 100 is no change
# [2] = 100 micromolar inhibitor, 100 = no change
# PKBa, sequence (P31749 whole entry): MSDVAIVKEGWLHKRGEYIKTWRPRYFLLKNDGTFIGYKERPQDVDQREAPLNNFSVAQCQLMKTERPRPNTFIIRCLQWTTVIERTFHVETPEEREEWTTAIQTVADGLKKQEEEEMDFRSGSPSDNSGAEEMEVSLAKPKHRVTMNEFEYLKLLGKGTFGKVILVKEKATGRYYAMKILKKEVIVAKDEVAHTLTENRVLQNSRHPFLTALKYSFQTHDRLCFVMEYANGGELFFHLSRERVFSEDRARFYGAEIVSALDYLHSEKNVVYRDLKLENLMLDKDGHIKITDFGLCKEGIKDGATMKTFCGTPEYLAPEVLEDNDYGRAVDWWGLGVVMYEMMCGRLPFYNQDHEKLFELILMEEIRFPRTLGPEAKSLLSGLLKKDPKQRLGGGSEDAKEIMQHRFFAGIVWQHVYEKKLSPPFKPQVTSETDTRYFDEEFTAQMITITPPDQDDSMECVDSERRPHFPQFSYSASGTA
# p38b MAPK, sequence (Q15759 whole entry): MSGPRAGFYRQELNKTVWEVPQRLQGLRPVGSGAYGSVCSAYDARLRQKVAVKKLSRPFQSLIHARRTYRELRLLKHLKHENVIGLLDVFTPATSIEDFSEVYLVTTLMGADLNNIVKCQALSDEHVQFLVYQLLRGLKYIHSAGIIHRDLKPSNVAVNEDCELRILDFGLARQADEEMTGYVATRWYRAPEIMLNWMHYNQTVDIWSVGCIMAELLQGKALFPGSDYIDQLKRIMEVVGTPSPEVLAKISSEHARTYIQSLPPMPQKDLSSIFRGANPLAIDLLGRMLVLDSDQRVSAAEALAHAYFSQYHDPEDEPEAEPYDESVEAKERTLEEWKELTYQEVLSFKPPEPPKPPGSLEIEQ
# RSK2, sequence (P51812 whole entry, species assumed): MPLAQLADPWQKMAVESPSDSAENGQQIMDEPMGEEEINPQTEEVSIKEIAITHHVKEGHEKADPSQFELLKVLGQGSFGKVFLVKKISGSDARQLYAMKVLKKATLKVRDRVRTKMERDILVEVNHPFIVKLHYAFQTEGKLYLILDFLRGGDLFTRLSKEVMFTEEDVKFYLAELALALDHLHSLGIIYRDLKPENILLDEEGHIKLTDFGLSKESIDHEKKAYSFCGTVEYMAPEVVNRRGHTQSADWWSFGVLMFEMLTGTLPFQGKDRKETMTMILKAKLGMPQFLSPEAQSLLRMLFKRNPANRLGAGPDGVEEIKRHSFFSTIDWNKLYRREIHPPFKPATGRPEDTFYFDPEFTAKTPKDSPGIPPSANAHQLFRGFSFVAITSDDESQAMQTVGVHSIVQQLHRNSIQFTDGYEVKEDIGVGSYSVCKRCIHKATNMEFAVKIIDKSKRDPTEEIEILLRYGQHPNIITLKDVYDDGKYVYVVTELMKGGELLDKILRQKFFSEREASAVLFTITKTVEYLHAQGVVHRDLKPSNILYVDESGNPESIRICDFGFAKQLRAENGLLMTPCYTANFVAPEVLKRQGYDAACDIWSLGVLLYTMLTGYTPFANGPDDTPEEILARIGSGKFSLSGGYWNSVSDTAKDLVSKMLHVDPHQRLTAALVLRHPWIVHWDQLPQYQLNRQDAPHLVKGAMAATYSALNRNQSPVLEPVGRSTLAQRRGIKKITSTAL
# MKK1, sequence (Q02750 whole entry, species assumed): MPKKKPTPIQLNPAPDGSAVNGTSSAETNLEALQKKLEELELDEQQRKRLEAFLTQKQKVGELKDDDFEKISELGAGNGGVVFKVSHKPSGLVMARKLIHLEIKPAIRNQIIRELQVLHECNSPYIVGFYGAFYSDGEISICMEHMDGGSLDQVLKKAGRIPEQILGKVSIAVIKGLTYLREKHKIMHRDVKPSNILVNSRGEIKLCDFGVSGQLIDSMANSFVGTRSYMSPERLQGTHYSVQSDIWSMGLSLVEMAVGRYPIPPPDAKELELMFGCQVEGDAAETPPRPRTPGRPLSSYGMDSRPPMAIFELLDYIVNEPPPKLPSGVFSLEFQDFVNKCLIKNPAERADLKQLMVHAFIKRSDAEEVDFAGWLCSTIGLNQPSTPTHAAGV
# p38a MAPK, sequence (Q16539 whole entry): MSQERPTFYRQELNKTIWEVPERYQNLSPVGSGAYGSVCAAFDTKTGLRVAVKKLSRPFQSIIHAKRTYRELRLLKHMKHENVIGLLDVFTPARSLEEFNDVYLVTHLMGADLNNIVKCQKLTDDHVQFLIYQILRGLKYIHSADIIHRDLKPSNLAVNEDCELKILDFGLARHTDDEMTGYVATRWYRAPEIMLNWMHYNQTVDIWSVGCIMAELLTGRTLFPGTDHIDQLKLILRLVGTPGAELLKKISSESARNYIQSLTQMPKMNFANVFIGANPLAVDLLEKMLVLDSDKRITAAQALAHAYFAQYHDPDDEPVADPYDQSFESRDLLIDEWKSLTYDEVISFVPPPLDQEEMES
# BTK, sequence (Q06187 whole entry, species assumed): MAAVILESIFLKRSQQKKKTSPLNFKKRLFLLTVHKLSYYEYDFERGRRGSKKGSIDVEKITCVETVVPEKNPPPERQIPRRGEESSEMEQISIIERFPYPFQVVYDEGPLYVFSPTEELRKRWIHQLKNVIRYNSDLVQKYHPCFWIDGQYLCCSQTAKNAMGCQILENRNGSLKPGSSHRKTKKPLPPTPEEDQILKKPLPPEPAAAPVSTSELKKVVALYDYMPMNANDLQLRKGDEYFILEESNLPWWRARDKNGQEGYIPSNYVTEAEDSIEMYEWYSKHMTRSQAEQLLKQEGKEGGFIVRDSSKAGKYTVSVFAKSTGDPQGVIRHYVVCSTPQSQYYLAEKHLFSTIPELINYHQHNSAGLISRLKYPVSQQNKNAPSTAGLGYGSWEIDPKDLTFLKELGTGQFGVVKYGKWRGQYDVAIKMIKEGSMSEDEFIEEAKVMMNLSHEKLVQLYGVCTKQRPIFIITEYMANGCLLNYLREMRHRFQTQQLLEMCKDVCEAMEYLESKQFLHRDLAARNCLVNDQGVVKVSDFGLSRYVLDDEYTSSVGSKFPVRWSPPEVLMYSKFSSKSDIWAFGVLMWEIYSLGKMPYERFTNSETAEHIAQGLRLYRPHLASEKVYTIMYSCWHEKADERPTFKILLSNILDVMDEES
# MSK1, sequence (O75582 whole entry, species assumed): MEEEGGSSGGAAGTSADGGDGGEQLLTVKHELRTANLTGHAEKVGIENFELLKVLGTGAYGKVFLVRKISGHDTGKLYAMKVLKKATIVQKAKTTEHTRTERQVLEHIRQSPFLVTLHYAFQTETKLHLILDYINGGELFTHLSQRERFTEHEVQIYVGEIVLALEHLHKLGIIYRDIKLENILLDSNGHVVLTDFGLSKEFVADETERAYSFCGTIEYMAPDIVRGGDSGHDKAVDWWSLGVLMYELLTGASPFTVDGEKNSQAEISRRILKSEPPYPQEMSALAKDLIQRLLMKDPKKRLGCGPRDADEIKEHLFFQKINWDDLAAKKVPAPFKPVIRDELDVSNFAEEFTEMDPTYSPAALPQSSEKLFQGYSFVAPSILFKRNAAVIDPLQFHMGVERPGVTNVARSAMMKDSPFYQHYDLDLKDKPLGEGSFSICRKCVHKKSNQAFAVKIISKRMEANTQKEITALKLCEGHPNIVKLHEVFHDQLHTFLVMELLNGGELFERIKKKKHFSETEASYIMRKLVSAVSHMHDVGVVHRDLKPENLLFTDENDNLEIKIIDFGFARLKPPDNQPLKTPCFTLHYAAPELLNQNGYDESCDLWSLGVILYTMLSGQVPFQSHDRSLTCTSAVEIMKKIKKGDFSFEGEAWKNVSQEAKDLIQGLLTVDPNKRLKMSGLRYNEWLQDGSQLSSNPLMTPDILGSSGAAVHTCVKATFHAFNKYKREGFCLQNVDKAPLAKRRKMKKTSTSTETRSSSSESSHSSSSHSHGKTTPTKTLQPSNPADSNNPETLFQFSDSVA
# PIM1, sequence (P11309 whole entry, species assumed): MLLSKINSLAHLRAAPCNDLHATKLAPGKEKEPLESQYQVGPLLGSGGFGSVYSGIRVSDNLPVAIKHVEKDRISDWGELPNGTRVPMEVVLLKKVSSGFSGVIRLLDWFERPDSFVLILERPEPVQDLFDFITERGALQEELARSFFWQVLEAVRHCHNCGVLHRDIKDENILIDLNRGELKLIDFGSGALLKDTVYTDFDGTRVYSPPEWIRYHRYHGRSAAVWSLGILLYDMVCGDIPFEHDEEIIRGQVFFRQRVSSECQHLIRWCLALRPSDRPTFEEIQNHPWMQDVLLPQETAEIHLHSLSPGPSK
structure (smiles),measurement,setting,value
CC(=O)Nc1cccc(C(=O)Nc2nc3ccc(O)cc3s2)c1 [Compound 03-58],"residual kinase activity, PKBa",PKBa; [1],92
same,"residual kinase activity, p38a MAPK",p38a MAPK; [1],81
same,"residual kinase activity, PDK1",PDK1; [1],96
same,"residual kinase activity, p38b MAPK",p38b MAPK,75
same,"residual kinase activity, RSK2",RSK2,51
same,"residual kinase activity, MKK1",MKK1; [1],52
same,"residual kinase activity, PKA",PKA; [1],90
same,"residual kinase activity, PKCa",PKCa; [1],96
CC(=O)NC(C)C(=O)Nc1nc2ccc(C(F)(F)F)cc2s1 (stereo not drawn) [Compound 03-80],"residual kinase activity, PKBa",PKBa; [1],105
same,"residual kinase activity, p38a MAPK",p38a MAPK; [1],79
same,"residual kinase activity, PDK1",PDK1; [1],86
same,"residual kinase activity, p38b MAPK",p38b MAPK,77
same,"residual kinase activity, RSK2",RSK2,66
same,"residual kinase activity, MKK1",MKK1; [1],80
same,"residual kinase activity, PKA",PKA; [1],104
same,"residual kinase activity, PKCa",PKCa; [1],125
CC(=O)Nc1ccccc1C(=O)Nc1nc2ccc(O)cc2s1 [Compound 08-39],"residual kinase activity, PKBa",PKBa; [1],84
same,"residual kinase activity, p38a MAPK",p38a MAPK; [1],96
same,"residual kinase activity, PDK1",PDK1; [1],66
same,"residual kinase activity, p38b MAPK",p38b MAPK,96
same,"residual kinase activity, RSK2",RSK2,2
same,"residual kinase activity, MKK1",MKK1; [1],106
same,"residual kinase activity, PKA",PKA; [1],88
same,"residual kinase activity, PKCa",PKCa; [1],43
COc1cccc(NC(=O)Nc2nc3cc(O)ccc3s2)c1 [Compound 13-62],"residual kinase activity, PLK1",PLK1,98
same,"residual kinase activity, PKBa",PKBa; [2],66
same,"residual kinase activity, MARK3",MARK3,12
same,"residual kinase activity, JAK2",JAK2,31
same,"residual kinase activity, p38a MAPK",p38a MAPK; [2],21
same,"residual kinase activity, PDK1",PDK1; [2],77
same,"residual kinase activity, DYRK1A",DYRK1A,7
same,"residual kinase activity, CHK2",CHK2,18
same,"residual kinase activity, MSK1",MSK1,41
same,"residual kinase activity, PAK4",PAK4,22
same,"residual kinase activity, Lck",Lck,11
same,"residual kinase activity, SYK",SYK,59
same,"residual kinase activity, EPH-A2",EPH-A2,81
same,"residual kinase activity, PIM1",PIM1,14
same,"residual kinase activity, MKK1",MKK1; [2],15
same,"residual kinase activity, CAMKKb",CAMKKb,25
same,"residual kinase activity, TBK1",TBK1,48
same,"residual kinase activity, EF2K",EF2K,85
same,"residual kinase activity, PKA",PKA; [2],104
same,"residual kinase activity, BTK",BTK,25
same,"residual kinase activity, RIPK2",RIPK2,6
same,"residual kinase activity, PKCa",PKCa; [2],102
COc1ccc2sc(NC(=O)c3ccc(NC(C)=O)cc3)nc2c1 [MS:LY-2-77],"residual kinase activity, PKBa",PKBa; [1],89
same,"residual kinase activity, p38a MAPK",p38a MAPK; [1],109
same,"residual kinase activity, PDK1",PDK1; [1],103
same,"residual kinase activity, p38b MAPK",p38b MAPK,110
same,"residual kinase activity, RSK2",RSK2,81
same,"residual kinase activity, MKK1",MKK1; [1],95
same,"residual kinase activity, PKA",PKA; [1],102
same,"residual kinase activity, PKCa",PKCa; [1],97
COc1ccc2sc(NC(=O)c3cccc(NC(C)=O)c3)nc2c1 [MS:LY-2-85],"residual kinase activity, PKBa",PKBa; [1],90
same,"residual kinase activity, p38a MAPK",p38a MAPK; [1],89
same,"residual kinase activity, PDK1",PDK1; [1],80
same,"residual kinase activity, p38b MAPK",p38b MAPK,92
same,"residual kinase activity, RSK2",RSK2,32
same,"residual kinase activity, MKK1",MKK1; [1],83
same,"residual kinase activity, PKA",PKA; [1],98
same,"residual kinase activity, PKCa",PKCa; [1],63
CC(=O)Nc1ccc(C(=O)Nc2nc3cc(O)ccc3s2)cc1 [MS:LY-2-87],"residual kinase activity, PKBa",PKBa; [1],86
same,"residual kinase activity, p38a MAPK",p38a MAPK; [1],73
same,"residual kinase activity, PDK1",PDK1; [1],69
same,"residual kinase activity, p38b MAPK",p38b MAPK,82
same,"residual kinase activity, RSK2",RSK2,28
same,"residual kinase activity, MKK1",MKK1; [1],69
same,"residual kinase activity, PKA",PKA; [1],93
same,"residual kinase activity, PKCa",PKCa; [1],59
CC(=O)Nc1cccc(C(=O)Nc2nc3cc(O)ccc3s2)c1 [MS:LY-2-89],"residual kinase activity, PKBa",PKBa; [1],82
same,"residual kinase activity, p38a MAPK",p38a MAPK; [1],18
same,"residual kinase activity, PDK1",PDK1; [1],44
same,"residual kinase activity, p38b MAPK",p38b MAPK,17
same,"residual kinase activity, RSK2",RSK2,8
same,"residual kinase activity, MKK1",MKK1; [1],56
same,"residual kinase activity, PKA",PKA; [1],87
same,"residual kinase activity, PKCa",PKCa; [1],48
